Structures are written as SMILES.

T1 sequence (Q8K3T4 whole entry): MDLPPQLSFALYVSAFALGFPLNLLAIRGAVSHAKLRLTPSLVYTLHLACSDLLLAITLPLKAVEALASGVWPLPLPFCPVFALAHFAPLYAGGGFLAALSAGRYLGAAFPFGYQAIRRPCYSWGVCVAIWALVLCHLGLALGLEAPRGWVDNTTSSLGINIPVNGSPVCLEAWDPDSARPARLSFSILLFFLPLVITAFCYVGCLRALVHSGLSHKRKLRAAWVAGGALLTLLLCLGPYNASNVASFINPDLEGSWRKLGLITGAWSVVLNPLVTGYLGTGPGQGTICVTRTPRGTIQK

The test has as its target T1, GPR40 (Rattus norvegicus, UniProt Q8K3T4).
T1 construct: expressed in transfected cells; host or cells: HEK293
Nature of the test: In vitro FLIPR assay with recombinant HEK293 cells which express the GPCR GPR40 (intracellular Ca2+). It is filed as cell-based. As to conditions: recombinant HEK293 cells expressing GPR40; Fluo-4 Ca2+ signal; 100% = 10 μM linoleic acid. How it is done:
In Vitro FLIPR Assay with Recombinant Cells which Express the GPCR GPR40
Function-testing assays were performed by means of the FLIPR technique (“Fluorescence Imaging Plate Reader”, Molecular Devices Corp.). For this purpose, agonist-induced changes were determined in the intracellular concentration of Ca^2+ in recombinant HEK293 cells which expressed the GPCR GPR40.
For the studies, cells were sown into 96-well microtiter plates (60 000 cells/well) and left to grow overnight. The medium was removed and the cells were incubated in buffer which contains the fluorescent dye Fluo-4. After this loading with dye, the cells were washed, test substance was added and changes were measured in the intracellular Ca^2+ concentration in the FLIPR instrument. Results were presented as the percentage change relative to the control (0%: no test substance added; 100%: 10 μM reference agonist linoleic acid added) and used to calculate dose/effect curves, and EC50 values were determined.
As for `CC#CC(CC(=O)O)c1ccc(NC(=O)C(C)Oc2cc(C)ccc2C(C)C)cc1` (stereo not drawn) [Example 4], the concentration for a half-maximal effect (EC50) (as a rule, the concentration needed to bring the measured effect to its halfway point) is 0.094 µM.
As for `CC#CC(CC(=O)O)c1ccc(NC(=O)C(C)Oc2cc(C(C)C)ccc2C)cc1` (stereo not drawn) [Example 5], the figure is 0.176 µM.
The value for `CC#CC(CC(=O)O)c1ccc(NC(=O)C(C)Oc2cccc(C(C)C)c2)cc1` (stereo not drawn) [Example 6, 3-{4-[2-(3-Isopropylphenoxy)propionylamino]phenyl}hex-4-ynoic acid] was 0.071 µM; that for `CC#CC(CC(=O)O)c1ccc(NC(=O)C(C)(C)Oc2ccc(C(C)C)cc2Br)cc1` (stereo not drawn) [Example 8] was 1.14 µM; that for `CC#CC(CC(=O)O)c1ccc(NC(=O)C(Oc2ccc(C(C)C)cc2Br)C(C)C)cc1` (stereo not drawn) [Example 9] was 0.553 µM.
`CC#CC(CC(=O)O)c1ccc(NC(=O)C(C)(C)Oc2cccc(C(C)C)c2)cc1` (stereo not drawn) [Example 16]: the EC50 is 0.187 µM.
On to `CC#CC(CC(=O)O)c1ccc(NC(=O)C(C)(C)Oc2ccc(C(C)(C)C)cc2Br)cc1` (stereo not drawn) [Example 22], for which the EC50 came out at 4.46 µM.
As to `COC(CC(=O)O)c1ccc(NC(=O)C(C)Oc2cc(C(C)C)ccc2C)cc1` (stereo not drawn) [Example 39], the EC50 came out at 5.08 µM.
As for `COC(CC(=O)O)c1ccc(NC(=O)C(C)Oc2cc(C)ccc2C(C)C)cc1` (stereo not drawn) [Example 40, 3-{4-[2-(2-Isopropyl-5-methylphenoxy)propionylamino]phenyl}-3-methoxypropionic Acid], the figure is 2.13 µM; as for `COC(CC(=O)O)c1ccc(NC(=O)C(C)Oc2cccc(C(C)(C)C)c2)cc1` (stereo not drawn) [Example 42], 10.7 µM.
The value for `COC(CC(=O)O)c1ccc(NC(=O)C(C)(C)Oc2ccc(Cl)cc2Cl)cc1` (stereo not drawn) [Example 43] was 20.8 µM.
Take `COC(CC(=O)O)c1ccc(NC(=O)C(C)(C)Oc2cccc(C(C)C)c2)cc1` (stereo not drawn) [Example 47]: the EC50 was determined as 1.16 µM.
